The supplement of paper PMC10883282
± gives the standard deviation of the averaged measurements.

What was measured:
Test in all cases: relative viability vs DMSO control (72 h) (fraction); higher = more viable cells
A204 = test system: A204
Method in brief: (§1)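 Serially diluted compound, 2.5 µl from source plates spanning 10 mM to 0.0002 mM, was added 24 h after sarcoma cell lines were seeded in 384-well plates at densities targeting 80–90% confluence. Plates then sat 72 h at 37 °C, 5% CO2, with 0.1% DMSO vehicle and a 5 µM positive control. Relative viability came from ATPLite as percent growth, averaged over up to triplicate wells, and was rescaled with 1 as full and 0 as none.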

SW982 = test system: SW982
Method in brief: as §1

SW1353 = test system: SW1353
Method in brief: as §1

G401 = test system: G401
Method in brief: as §1

SW872 = test system: SW872
Method in brief: as §1

SK-LMS-1 = test system: SK-LMS-1
Method in brief: as §1

SK-ES-1 = test system: SK-ES-1
Method in brief: as §1

MES-SA = test system: MES-SA
Method in brief: as §1

SYO-1 = test system: SYO-1
Method in brief: as §1

KHOS-240S = test system: KHOS-240S
Method in brief: as §1

SW684 = test system: SW684
Method in brief: as §1

HS729 = test system: HS729
Method in brief: as §1

CC(C)NC[C@@H](C(=O)N1CCN(c2ncnc3c2[C@H](C)C[C@H]3O)CC1)c1ccc(Cl)cc1 [Ipatasertib]
Details | relative viability
A204, 0.00017 µM | 1.06 ± 0.02
A204, 0.00051 µM | 1.08 ± 0.043
A204, 0.00152 µM | 1.05 ± 0.037
A204, 0.00457 µM | 1.05 ± 0.015
A204, 0.01372 µM | 1.05 ± 0.039
A204, 0.04115 µM | 0.992 ± 0.016
A204, 0.1235 µM | 0.953 ± 0.02
A204, 0.3704 µM | 0.751 ± 0.025
A204, 1.111 µM | 0.711 ± 0.033
A204, 3.333 µM | 0.621 ± 0.025
A204, 10 µM | 0.509 ± 0.045
G401, 0.00017 µM | 1.03 ± 0.05
G401, 0.00051 µM | 1.04 ± 0.02
G401, 0.00152 µM | 1.01 ± 0.01
G401, 0.00457 µM | 0.956 ± 0.032
G401, 0.01372 µM | 0.942 ± 0.042
G401, 0.04115 µM | 0.89 ± 0.023
G401, 0.1235 µM | 0.863 ± 0.042
G401, 0.3704 µM | 0.786 ± 0.017
G401, 1.111 µM | 0.707 ± 0.015
G401, 3.333 µM | 0.655 ± 0.021
G401, 10 µM | 0.613 ± 0.029
HS729, 0.00017 µM | 1 ± 0.095
HS729, 0.00051 µM | 0.969 ± 0.082
HS729, 0.00152 µM | 0.91 ± 0.092
HS729, 0.00457 µM | 0.916 ± 0.043
HS729, 0.01372 µM | 0.844 ± 0.08
HS729, 0.04115 µM | 0.849 ± 0.081
HS729, 0.1235 µM | 0.802 ± 0.037
HS729, 0.3704 µM | 0.726 ± 0.046
HS729, 1.111 µM | 0.643 ± 0.044
HS729, 3.333 µM | 0.532 ± 0.035
HS729, 10 µM | 0.49 ± 0.012
KHOS-240S, 0.00017 µM | 1.06 ± 0.068
KHOS-240S, 0.00051 µM | 1.04 ± 0.021
KHOS-240S, 0.00152 µM | 1.05 ± 0.04
KHOS-240S, 0.00457 µM | 1.05 ± 0.039
KHOS-240S, 0.01372 µM | 1.06 ± 0.081
KHOS-240S, 0.04115 µM | 0.991 ± 0.046
KHOS-240S, 0.1235 µM | 1.01 ± 0.045
KHOS-240S, 0.3704 µM | 0.938 ± 0.036
KHOS-240S, 1.111 µM | 0.87 ± 0.059
KHOS-240S, 3.333 µM | 0.823 ± 0.019
KHOS-240S, 10 µM | 0.703 ± 0.038
MES-SA, 0.00017 µM | 0.935 ± 0.021
MES-SA, 0.00051 µM | 0.904 ± 0.014
MES-SA, 0.00152 µM | 0.9385 ± 0.008
MES-SA, 0.00457 µM | 0.905 ± 0.024
MES-SA, 0.01372 µM | 0.8986 ± 0.0045
MES-SA, 0.04115 µM | 0.847 ± 0.032
MES-SA, 0.1235 µM | 0.751 ± 0.022
MES-SA, 0.3704 µM | 0.619 ± 0.033
MES-SA, 1.111 µM | 0.467 ± 0.027
MES-SA, 3.333 µM | 0.317 ± 0.022
MES-SA, 10 µM | 0.24 ± 0.0048
SK-ES-1, 0.00017 µM | 1.03 ± 0.033
SK-ES-1, 0.00051 µM | 1.04 ± 0.06
SK-ES-1, 0.00152 µM | 1.01 ± 0.021
SK-ES-1, 0.00457 µM | 1 ± 0.02
SK-ES-1, 0.01372 µM | 1.02 ± 0.022
SK-ES-1, 0.04115 µM | 0.947 ± 0.033
SK-ES-1, 0.1235 µM | 0.944 ± 0.042
SK-ES-1, 0.3704 µM | 0.79 ± 0.026
SK-ES-1, 1.111 µM | 0.683 ± 0.023
SK-ES-1, 3.333 µM | 0.529 ± 0.022
SK-ES-1, 10 µM | 0.473 ± 0.021
SK-LMS-1, 0.00017 µM | 0.971 ± 0.031
SK-LMS-1, 0.00051 µM | 0.95 ± 0.02
SK-LMS-1, 0.00152 µM | 0.96 ± 0.031
SK-LMS-1, 0.00457 µM | 1 ± 0.038
SK-LMS-1, 0.01372 µM | 0.954 ± 0.022
SK-LMS-1, 0.04115 µM | 0.959 ± 0.039
SK-LMS-1, 0.1235 µM | 0.909 ± 0.039
SK-LMS-1, 0.3704 µM | 0.8304 ± 0.005
SK-LMS-1, 1.111 µM | 0.651 ± 0.02
SK-LMS-1, 3.333 µM | 0.594 ± 0.025
SK-LMS-1, 10 µM | 0.55 ± 0.048
SW684, 0.00017 µM | 1.07 ± 0.064
SW684, 0.00051 µM | 1.11 ± 0.038
SW684, 0.00152 µM | 1.11 ± 0.033
SW684, 0.00457 µM | 1.09 ± 0.04
SW684, 0.01372 µM | 1.09 ± 0.032
SW684, 0.04115 µM | 1.08 ± 0.031
SW684, 0.1235 µM | 0.994 ± 0.026
SW684, 0.3704 µM | 0.855 ± 0.035
SW684, 1.111 µM | 0.664 ± 0.052
SW684, 3.333 µM | 0.5598 ± 0.0049
SW684, 10 µM | 0.49 ± 0.029
SW872, 0.00017 µM | 1.01 ± 0.03
SW872, 0.00051 µM | 1.04 ± 0.023
SW872, 0.00152 µM | 1.01 ± 0.039
SW872, 0.00457 µM | 1.01 ± 0.033
SW872, 0.01372 µM | 0.922 ± 0.025
SW872, 0.04115 µM | 0.91 ± 0.07
SW872, 0.1235 µM | 0.843 ± 0.052
SW872, 0.3704 µM | 0.712 ± 0.031
SW872, 1.111 µM | 0.611 ± 0.025
SW872, 3.333 µM | 0.491 ± 0.022
SW872, 10 µM | 0.415 ± 0.0079
SW982, 0.00017 µM | 0.991 ± 0.045
SW982, 0.00051 µM | 0.985 ± 0.031
SW982, 0.00152 µM | 1.02 ± 0.037
SW982, 0.00457 µM | 1 ± 0.031
SW982, 0.01372 µM | 0.945 ± 0.049
SW982, 0.04115 µM | 0.949 ± 0.019
SW982, 0.1235 µM | 0.962 ± 0.04
SW982, 0.3704 µM | 0.881 ± 0.032
SW982, 1.111 µM | 0.824 ± 0.05
SW982, 3.333 µM | 0.745 ± 0.031
SW982, 10 µM | 0.652 ± 0.019
SW1353, 0.00017 µM | 1.04 ± 0.055
SW1353, 0.00051 µM | 1.05 ± 0.046
SW1353, 0.00152 µM | 1.03 ± 0.058
SW1353, 0.00457 µM | 1.02 ± 0.086
SW1353, 0.01372 µM | 0.991 ± 0.027
SW1353, 0.04115 µM | 0.93 ± 0.049
SW1353, 0.1235 µM | 0.935 ± 0.038
SW1353, 0.3704 µM | 0.862 ± 0.021
SW1353, 1.111 µM | 0.864 ± 0.019
SW1353, 3.333 µM | 0.781 ± 0.029
SW1353, 10 µM | 0.727 ± 0.021
SYO-1, 0.00017 µM | 0.95 ± 0.019
SYO-1, 0.00051 µM | 0.94 ± 0.012
SYO-1, 0.00152 µM | 0.862 ± 0.052
SYO-1, 0.00457 µM | 0.821 ± 0.058
SYO-1, 0.01372 µM | 0.807 ± 0.049
SYO-1, 0.04115 µM | 0.776 ± 0.043
SYO-1, 0.1235 µM | 0.719 ± 0.011
SYO-1, 0.3704 µM | 0.656 ± 0.014
SYO-1, 1.111 µM | 0.636 ± 0.029
SYO-1, 3.333 µM | 0.549 ± 0.016
SYO-1, 10 µM | 0.504 ± 0.0094
